Experimental findings from US8242142B2, “Cyclohexylamines, phenylamines and uses thereof” (The Regents of the University of California, priority 2008, dated 2012) are described below.

Where two headings read alike, the source gives them in different places.

The subject of series [1] is Gli:GFP expression (Hh signaling). Kind of series: Gli:GFP transgenic zebrafish embryo assay. It is filed as in vivo. The note with it: for concentration at which inhibition of Hh signaling starts to show: zebrafish embryo assays; for concentration that blocks/abolishes Gli:GFP expression: zebrafish embryos. An excerpt:
Generation of Gli:GFP transgenic zebrafish. […] The PCR product digested with Nhe1 and Mlu1 was ligated to GFP and used to generate transgenic zebrafish by microinjection.
Image acquisition and analysis.

A further series can be described thus: Stability remarks. The format is physicochemical. The note with it: in our studies.
A further series has as its system Shh-LIGHT2 cells. Kind of series: Compound activities in Shh-LIGHT2 cells (Gli-dependent luciferase reporter). The format is cell-based. The note with it: Shh Light2, Shh-N-conditioned medium, luciferase reporter activity. Here is the method:
Shh-LIGHT2 cells (ATCC CRL-2795), a NIH-3T3 cell line stably incorporating Gli-dependent firefly luciferase and thyrmidine kinase promoter-driven Renilla luciferase reporters (Taipale J, Chen J K, Cooper M K, Wang B. Mann R K, Milenkovic L. et al. “Effects of oncogenic mutations in Smoothened and Patched can be reversed by cyclopamine” Nature 2000; 406:1005-9; incorporated herein by reference), were cultured to confluency in 96-well plates using DMEM medium containing 10% calf serum, 100 U/mL penicillin, and 100 μg/mL streptomycin. The cells were then treated with various concentrations of the compounds in DMEM containing 0.5% calf serum and a 1:20 dilution of Shh-N-conditioned medium (Chen J. K., Taipale J. Young K. E., Maiti T Beachy P. A., “Small molecule modulation of Smoothened activity” Proc. Natl. Acad. Sci. U.S.A., 2002; 99:14071-6; incorporated herein by reference). The cells were cultured for an additional 30 h under standard conditions. Firefly and Renilla luciferase activities were measured on a Veritas luminometer (Turner Biosystems) using a dual luciferase kit (Promega) according to the manufacturers' protocols.

A further series relates to mouse Smo. Kind of series: FRET analysis of Smo conformation in NIH-3T3 cells. The format is cell-based. The note with it: for Shh-induced decrease in FRET from mSmo-CFPL2YFPC (FRETL2C) / Shh-induced increase in FRET between mSmo-CFPC and mSmo-YFPC (FRETC): 50 nM, with Shh; for basal FRET of mSmo-CFPN/mSmoYFPN (N-termini): SANT74 or SANT75 50 nM, SAG 100 nM, with or without Shh. On the procedure:
FRET analysis using confocal microscopy. Effect of SAG, compound 21a (SANT74), and compound 21b (SANT75) on mSmo conformational change was tested by FRET in NIH-3T3 cells that were co-transfected with mouse Smo CFP and Smo YFP reporter constructs. The construction of mSmo-CFP^C/YFP^C, mSmo-CFP^N/YFP^N, and mSmo-CFP^L2YFP^C was performed as described in Zhao Y. Tong C, Jiang J., “Hedgehog regulates smoothened activity by inducing a conformational switch” Nature, 2007; 450:252-8; incorporated herein by reference. NIH-3T3 cells were cultured in DMEM containing 10% bovine calf serum and antibiotics PS at 5% CO2 in a humidified incubator. Transfection was carried out using FuGENE6 (Roche). For FRET analysis of cultured cells, CFP- and YFP-tagged constructs were transfected into NIH-3T3 cells. Transfected cells were treated in the presence of compounds with or without Shh-conditioned medium. Cells were washed with PBS, fixed with 4% formaldehyde for 20 min, and mounted on slides in 80% glycerol. Fluorescence signals were acquired with the 100× objective of a Zeiss LSM510 confocal microscope. CFP was excited by 458 nm light and the emission was collected through BP 480-520 nm filter. YFP was excited by 514 nm light and the emission was collected through BP 535-590 nm filter. CFP signal was obtained once before and once after photobleaching YFP using the full power of the 514 nm laser line for 1-2 min at the top half of each cell, leaving the bottom half unbleached that serves as an internal control. The intensity of CFP was analyzed using the Metamorph software (Universal Imaging Corn). Energy transfer efficiency was calculated using the formula: FRET %=(CFPAP−CFPBP/CFPAP)×100. Each data set was based on 10-15 individual cells. In each cell, four to five regions of interest in the photobleached area were selected for analysis.

A further series deals with T1, mouse Smoothened (Mus musculus, UniProt P56726).
T1 construct: expressed in transfected cells; host or cells: HEK 293T
T1 sequence (P56726 33-793): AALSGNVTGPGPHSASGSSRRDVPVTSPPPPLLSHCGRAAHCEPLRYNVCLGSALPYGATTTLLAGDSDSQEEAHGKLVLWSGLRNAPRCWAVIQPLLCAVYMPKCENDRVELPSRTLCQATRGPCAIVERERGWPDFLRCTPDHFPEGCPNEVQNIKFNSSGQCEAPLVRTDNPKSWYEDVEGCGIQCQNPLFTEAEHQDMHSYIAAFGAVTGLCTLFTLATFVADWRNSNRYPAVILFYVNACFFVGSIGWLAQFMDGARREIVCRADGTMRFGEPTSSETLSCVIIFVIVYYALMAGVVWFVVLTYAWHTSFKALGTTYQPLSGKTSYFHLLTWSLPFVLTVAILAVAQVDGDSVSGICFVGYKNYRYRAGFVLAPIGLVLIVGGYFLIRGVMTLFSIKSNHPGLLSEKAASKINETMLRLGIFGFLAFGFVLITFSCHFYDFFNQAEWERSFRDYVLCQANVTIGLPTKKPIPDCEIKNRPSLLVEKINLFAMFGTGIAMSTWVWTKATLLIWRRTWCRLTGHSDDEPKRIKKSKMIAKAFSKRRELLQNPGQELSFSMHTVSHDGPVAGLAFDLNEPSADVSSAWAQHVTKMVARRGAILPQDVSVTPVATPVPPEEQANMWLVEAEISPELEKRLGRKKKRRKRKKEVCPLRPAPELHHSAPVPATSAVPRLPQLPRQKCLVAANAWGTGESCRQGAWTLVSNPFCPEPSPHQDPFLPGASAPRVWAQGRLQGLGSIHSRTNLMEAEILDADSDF
Description: Smo-binding assay (BODIPY-cyclopamine competition, HEK 293T cells). The note with it: 5 nM BODIPY-cyclopamine, Smo-overexpressing HEK 293T cells. On the procedure: Smo-binding assay. HEK 293T cells were cultured in DMEM containing 10% fetal bovine serum, 100 U/mL penicillin, and 100 μg/mL streptomycin to 50% confluency in 96-well plates and then transfected with a CMV promoter-driven mouse Smoothened-Myc3 expression construct (100 ng cDNA/well) with Fugene 6 (Roche) according to the manufacturer's protocols. After 12 h the cells were incubated with DMEM containing 0.5% fetal bovine serum, 10 μM Hoechst 33342, 5 nM BODIPY-labeled cyclopamine (Chen J. K., Taipale J, Cooper M. K., Beachy P. A., “Inhibition of Hedgehog signaling by direct binding of cyclopamine to Smoothened” Genes Dev., 2002; 16:2743-8; incorporated herein by reference), and various concentrations of compound 75 for 1 h. The cells were washed two times with PBS buffer and then imaged in DMEM containing 0.5% fetal bovine serum using an ImageXpress 5000A microscopy system (Molecular Devices).

A further series deals with zebrafish embryos. Kind of series: Zebrafish embryo phenotype analysis (insulin:GFP beta cells, Flk:GFP intersegmental vessels, somites). It is filed as in vivo. Particulars: for off-target toxicity: whole zebrafish embryo assays. Here is the method:
If SANT74 and SANT75 are specific inhibitors of Hh treating, zebrafish embryos should only produce these well-characterized phenotypes. […] Using these criteria, the specificity of SANT74 and 75 in zebrafish was evaluated.
As a utility of this new inhibitor, timing requirement of Hh for normal somite formation and sprouting of ISV was tested by adding and washing away SANT74 at various developmental stages followed by phenotypic analysis.

In series [2] the test system is Hh signal pathway target genes Ptch1 and Gli1 mRNA. Kind of series: Quantitative real-time PCR of Hh target genes in zebrafish embryos. It is filed as in vivo. Particulars: dose dependent; for Ptch1 mRNA level: FIG. 1A; for Gli1 mRNA level: FIG. 1B. On the procedure:
Quantitative Real-time PCR. The larvae were exposed to different concentrations of small molecules from 2 hpf. Total RNA was extracted from the embryos at 36 hpf using the Trizol kit (Ambion, Austin, Tex.) according to the manufacturer's instructions. Three groups per treatment, each composed of 20 embryos, were assayed using SYBRGreen qPCR kit by real-time PCR (ABI Prism 7700 Sequence Detector System).
A general note: In qPCR the cycle at which signal appears reflects the starting amount.

As a reminder, the IC50 is the point on the concentration scale where inhibition reaches its midpoint. For the molecule `CCCN[C@H]1CC[C@H](N(Cc2cccc(-c3ccncc3)c2)C(=O)c2sc3ccccc3c2Cl)CC1` [SANT75, 3-chloro-N-(trans-4-(propylamino)cyclohexyl)-N-(3-(pyridin-4-yl)benzyl)benzo[b]thiophene-2-carboxamide], in series [1], the “concentration at which inhibition of Hh signaling starts to show” value is 5 µM and the “concentration that blocks/abolishes Gli:GFP expression” value came out at 20 µM. The stability entry in the series “Stability remarks” was “relatively stable”. Besides, the IC50 with Shh-LIGHT2 cells (read-out: IC50) worked out at 20 nM. In the series with mouse Smo, the “Shh-induced decrease in FRET from mSmo-CFPL2YFPC (FRETL2C)” value was “blocked”; the “Shh-induced increase in FRET between mSmo-CFPC and mSmo-YFPC (FRETC)” value is reported as “blocked”; the “basal FRET of mSmo-CFPN/mSmoYFPN (N-termini)” value is reported as “not affected”. In addition, the BODIPY-cyclopamine/Smo binding result at mouse Smoothened is reported as “effectively abrogate”. Also, the off-target toxicity entry with zebrafish embryos was “no obvious off-target toxicity”. Besides, in series [2], the “Ptch1 mRNA level” value is “reduced” and the “Gli1 mRNA level” value is “reduced”.
Take `C=CCN[C@H]1CC[C@H](N(Cc2cccc(-c3ccncc3)c2)C(=O)c2sc3ccccc3c2Cl)CC1` [SANT74, N-(trans-4-(allylamino)cyclohexyl)-3-chloro-N-(3-(pyridin-4-yl)benzyl)benzo[b]thiophene-2-carboxamide]: in series [1], the “concentration at which inhibition of Hh signaling starts to show” value came to 5 µM and the “concentration that blocks/abolishes Gli:GFP expression” value turned out to be 20 µM. The stability result in the series “Stability remarks” is on record as “relatively stable”. In addition, in the series on mouse Smo, the “Shh-induced decrease in FRET from mSmo-CFPL2YFPC (FRETL2C)” value is “blocked”; the “Shh-induced increase in FRET between mSmo-CFPC and mSmo-YFPC (FRETC)” value is listed as “blocked”; the “basal FRET of mSmo-CFPN/mSmoYFPN (N-termini)” value was “not affected”. The “intersegmental blood vessels (ISV)” value in the series with zebrafish embryos (20 μM, Flk:GFP transgenic zebrafish) is listed as “significantly reduced”. For the same molecule, the “insulin:GFP cells” value in the series with zebrafish embryos (20 μM, insulin:GFP transgenic zebrafish) is reported as “significantly reduced”. For the same molecule, the “effect on sprouting of ISV” value with zebrafish embryos (added after 24 hpf) is reported as “no longer had any effect”. Besides, the somite phenotype result in the series with zebrafish embryos (added for 4 hours before 21 hpf) was “induce U shape somite formation”. Also, the “sprouting of ISV” value in the series with zebrafish embryos (added upon fertilization, washed away before 17 hpf) is on record as “could occur normally”. Also, the “concentration at which embryos no longer developed any extended ISVs” value in the series on zebrafish embryos (dose dependent inhibition of angiogenesis) was at least 20 µM. For the same molecule, in the series on zebrafish embryos (embryos with defective ISVs), the “circulation by microangiographic analysis” value was “lacked circulation”. Besides, the off-target toxicity result in the series with zebrafish embryos is reported as “no obvious off-target toxicity”. For the same molecule, in series [2], the “Ptch1 mRNA level” value is listed as “reduced” and the “Gli1 mRNA level” value is recorded as “reduced”.
`CNC1CCC(N(Cc2cccc(-c3ccncc3)c2)C(=O)c2sc3ccccc3c2Cl)CC1` (stereo not drawn) [SAG, reference compound]: the “effect on Gli:GFP expression” value in series [1] (same condition as SANT19, approximately 80 μM) is “no effect”. In the series on mouse Smo (100 nM, independent of Shh), the FRETC entry was “increase” and the FRETL2C entry is on record as “decrease”. Further, the “basal FRET of mSmo-CFPN/mSmoYFPN (N-termini)” value in the series on mouse Smo is “not affected”.
With `CC1=C2C[C@H]3[C@@H](CC=C4C[C@@H](O)CC[C@@]43C)[C@@H]2CC[C@]12O[C@@H]1C[C@H](C)CN[C@H]1[C@H]2C` [cyclopamine, reference compound], the “Gli:GFP expression upon treatment” value in series [1] (transgenic embryos, concentration not given) is given as “abolished”. Also, the IC50 in the series with Shh-LIGHT2 cells worked out at 300 nM.
